Measured values reported in ChEMBL document CHEMBL3885881, “DrugMatrix”.

Species on record: Rattus norvegicus
Assay: DrugMatrix - Regimen: Daily Repeat
Assay type: toxicity, organism-based, Sprague-Dawley
Set-up: regimen Daily Repeat, gender Male, age 6-8 weeks
Details: in vivo, po, 0 mg/kg, route oral GAVAGE, dose level Control; for ABSOLUTE EOSINOPHIL / ABSOLUTE LYMPHOCYTE / ABSOLUTE MONOCYTE / ABSOLUTE SEGMENTED NEUTROPHIL / EOSINOPHIL / ERYTHROCYTE COUNT / HEMATOCRIT / HEMOGLOBIN / LEUKOCYTE COUNT / LYMPHOCYTE / MEAN CORPUSCULAR HEMOGLOBIN / MEAN CORPUSCULAR HEMOGLOBIN CONCENTRATION / MEAN CORPUSCULAR VOLUME / MONOCYTE / NEUTROPHIL / NUCLEATED RED BLOOD CELLS / PLATELET COUNT / ABSOLUTE BASOPHIL / BASOPHIL: tissue Blood
[1] = 72 h, time 3 day, vehicle 100 % SALINE
[2] = 72 h, time 3 day, vehicle 100 % WATER
[3] = 72 h, tissue Plasma, time 3 day, vehicle 100 % SALINE
[4] = 72 h, tissue Plasma, time 3 day, vehicle 100 % WATER
[5] = 120 h, time 5 day, vehicle 100 % SALINE
[6] = 120 h, time 5 day, vehicle 100 % WATER

CCCc1nn(C)c2c(=O)[nH]c(-c3cc(S(=O)(=O)N4CCN(C)CC4)ccc3OCC)nc12
ABSOLUTE EOSINOPHIL [1]: 37 CELLS/uL
ABSOLUTE LYMPHOCYTE [1]: 12359.33 CELLS/uL
ABSOLUTE MONOCYTE [1]: 122.67 CELLS/uL
ABSOLUTE SEGMENTED NEUTROPHIL [1]: 847.67 CELLS/uL
EOSINOPHIL [1]: 0.33%
ERYTHROCYTE COUNT [1]: 5.75 x10E6/uL
HEMATOCRIT [1]: 36.08%
HEMOGLOBIN [1]: 14.07 G/DL
LEUKOCYTE COUNT [1]: 13.37 x10E3/uL
LYMPHOCYTE [1]: 92.5%
MEAN CORPUSCULAR HEMOGLOBIN [1]: 24.47 pg
MEAN CORPUSCULAR HEMOGLOBIN CONCENTRATION [1]: 38.98 G/DL
MEAN CORPUSCULAR VOLUME [1]: 62.78 fL
MONOCYTE [1]: 1%
NEUTROPHIL [1]: 6.17%
NUCLEATED RED BLOOD CELLS [1]: 0.17 /100WBC
PLATELET COUNT [1]: 1202.17 x10E3/uL
ABSOLUTE BASOPHIL [2]: 0 CELLS/uL
ABSOLUTE EOSINOPHIL [2]: 0 CELLS/uL
ABSOLUTE LYMPHOCYTE [2]: 7802.17 CELLS/uL
ABSOLUTE MONOCYTE [2]: 13.5 CELLS/uL
ABSOLUTE SEGMENTED NEUTROPHIL [2]: 617.67 CELLS/uL
BASOPHIL [2]: 0%
EOSINOPHIL [2]: 0%
ERYTHROCYTE COUNT [2]: 5.35 x10E6/uL
HEMATOCRIT [2]: 33.02%
HEMOGLOBIN [2]: 12.88 G/DL
LEUKOCYTE COUNT [2]: 8.43 x10E3/uL
LYMPHOCYTE [2]: 92.67%
MEAN CORPUSCULAR HEMOGLOBIN [2]: 24.12 pg
MEAN CORPUSCULAR HEMOGLOBIN CONCENTRATION [2]: 39.03 G/DL
MEAN CORPUSCULAR VOLUME [2]: 61.8 fL
MONOCYTE [2]: 0.17%
NEUTROPHIL [2]: 7.17%
NUCLEATED RED BLOOD CELLS [2]: 0 /100WBC
PLATELET COUNT [2]: 1124.83 x10E3/uL
ALANINE AMINOTRANSFERASE [3]: 50.67 u/L
ALBUMIN [3]: 4.13 G/DL
ALKALINE PHOSPHATASE [3]: 356.33 u/L
ASPARTATE AMINOTRANSFERASE [3]: 78.17 u/L
BLOOD UREA NITROGEN [3]: 14.17 mg/dL
CARBON DIOXIDE [3]: 31.33 mmol/L
CHLORIDE [3]: 98.5 MEQ/L
CHOLESTEROL [3]: 76.5 mg/dL
CREATINE PHOSPHOKINASE [3]: 248.33 u/L
CREATININE [3]: 0.2 mg/dL
GLUCOSE [3]: 144 mg/dL
LACTATE DEHYDROGENASE [3]: 107 u/L
LIPASE [3]: 9.83 u/L
PHOSPHORUS [3]: 12.8 mg/dL
POTASSIUM [3]: 6.75 MEQ/L
SODIUM [3]: 142 MEQ/L
TOTAL PROTEIN [3]: 5.98 G/DL
URIC ACID [3]: 1.42 mg/dL
ALANINE AMINOTRANSFERASE [4]: 54.17 u/L
ALBUMIN [4]: 4.07 G/DL
ALKALINE PHOSPHATASE [4]: 383.83 u/L
ASPARTATE AMINOTRANSFERASE [4]: 82.17 u/L
BLOOD UREA NITROGEN [4]: 13.67 mg/dL
CARBON DIOXIDE [4]: 31 mmol/L
CHLORIDE [4]: 100.83 MEQ/L
CHOLESTEROL [4]: 65.17 mg/dL
CREATINE PHOSPHOKINASE [4]: 228.33 u/L
CREATININE [4]: 0.12 mg/dL
GLUCOSE [4]: 148 mg/dL
LACTATE DEHYDROGENASE [4]: 97.83 u/L
LIPASE [4]: 9.17 u/L
PHOSPHORUS [4]: 9.75 mg/dL
POTASSIUM [4]: 5.85 MEQ/L
SODIUM [4]: 147.02 MEQ/L
TOTAL BILIRUBIN [4]: 0.18 mg/dL
TOTAL PROTEIN [4]: 6.1 G/DL
URIC ACID [4]: 0.5 mg/dL
ABSOLUTE LYMPHOCYTE [5]: 8681.17 CELLS/uL
ABSOLUTE MONOCYTE [5]: 79.83 CELLS/uL
ABSOLUTE SEGMENTED NEUTROPHIL [5]: 689 CELLS/uL
HEMATOCRIT [5]: 33.55%
HEMOGLOBIN [5]: 13.1 G/DL
LEUKOCYTE COUNT [5]: 9.45 x10E3/uL
LYMPHOCYTE [5]: 92.33%
MEAN CORPUSCULAR HEMOGLOBIN [5]: 23.92 pg
MEAN CORPUSCULAR HEMOGLOBIN CONCENTRATION [5]: 39.07 G/DL
MEAN CORPUSCULAR VOLUME [5]: 61.22 fL
MONOCYTE [5]: 0.67%
NEUTROPHIL [5]: 7%
PLATELET COUNT [5]: 1001.17 x10E3/uL
ABSOLUTE BASOPHIL [6]: 0 CELLS/uL
ABSOLUTE EOSINOPHIL [6]: 0 CELLS/uL
ABSOLUTE LYMPHOCYTE [6]: 10538 CELLS/uL
ABSOLUTE MONOCYTE [6]: 15.83 CELLS/uL
ABSOLUTE SEGMENTED NEUTROPHIL [6]: 762.83 CELLS/uL
BASOPHIL [6]: 0%
